Source: patent US6335031B1, “TTS containing an antioxidant” (priority 1998, dated 2002)

Tests used:
[1] = tolerability of Compound A given orally; type: in vivo; details: oral, initial dose 1.5 mg twice a day, stepped up to 3 mg twice daily in week 2
Description: (§1) Higher dosages are possible, for example 4.5 mg twice daily and even 6 mg twice daily. Tolerability is seen to be even better for the transdermal device, wherein 24 mg were absorbed in 24 hours.

[2] = degradation testing of Compound A and of the prior-art transdermal composition; type: physicochemical; details: particularly in the presence of oxygen; prior-art composition in occlusive polymer matrix and air-tight packaging
[3] = tolerability and absorption of Compound A from transdermal patches; type: in vivo
Description: The transdermal devices of the invention in general have, for example an effective contact area of pharmaceutical composition on the skin of from about 1 to about 80 square centimeters, preferably about 10 square centimeters, and are intended to be applied at intervals of about once every 1 to 7 days, preferably 1-3 days. […] Compound A may, for example be administered at a dose of 8 mg in a patch of ca. 10 cm^2, once every day. The patch may be applied, for example on the abdomen, thigh, behind an ear, or on a shoulder or upper arm.
as §1

With `CCN(C)C(=O)Oc1cccc([C@H](C)N(C)C)c1` [Compound A] the tolerability [1] was “well tolerated”, the susceptibility to degradation [2] was “susceptible to degradation” and the “tolerability of transdermal device compared with oral” value ([3]; transdermal device, 24 mg absorbed in 24 hours) was “even better”. For the same compound, the amount absorbed ([3]; transdermal device, in 24 hours) was 24 mg, the tolerability ([3]; transdermal, 36 mg free base in up to 80 cm^2 of patches) was “well tolerated” and the amount absorbed ([3]; transdermal, patches up to 80 cm^2 containing 36 mg compound A) was 12 mg.
